Reference: ChEMBL document CHEMBL5038666, “Discovery of DNA-Targeting HDAC Inhibitors with Potent Antitumor Efficacy In Vivo That Trigger Antitumor Immunity” (J Med Chem, 2022)
Active and inactive are the calls of the source. No cut-off for these calls is given here.

How the values were obtained:
Histone deacetylase 1 = Histone deacetylase 1 (Homo sapiens, UniProt Q13547); experiment: Inhibition of HDAC1 (unknown origin) using fluorogenic substrate incubated for 30 mins by fluorescence based assay
PC-3 = experiment: cells; format: functional, cell-based; details: Homo sapiens, PC-3, 48 h
Description: Antiproliferative activity against human PC3 cells assessed as inhibition of cell growth measured after 48 hrs by MTT assay

HepG2 = experiment: cells; format: functional, cell-based; details: Homo sapiens, HepG2, 48 h
Description: Antiproliferative activity against human HepG2 cells assessed as inhibition of cell growth measured after 48 hrs by MTT assay

B16-F10 [1] = experiment: Induction of apoptosis in mouse B16-F10 cells at 5 to 10 uM measured after 24 hrs by Annexin V-FITC/propidium iodide staining based flow cytometry analysis; format: functional, cell-based; details: dose 5-10 µM
[2] = Toxicity in C57BL/6J mouse implanted with mouse B16-F10 cells assessed as spleen damage at 60 mg/kg, IG administered for 12 days H and E staining based histopathological analysis; format: organism-based; details: in vivo, po, 288 h, time 12 day
[3] = Toxicity in C57BL/6J mouse implanted with mouse B16-F10 cells assessed as effect on body weight at 60 mg/kg, IG administered for 12 days; format: organism-based; details: in vivo, po, 288 h, time 12 day
B16-F10 [4] = experiment: cells; format: functional, cell-based; details: Mus musculus, B16-F10, 48 h
Description: Antiproliferative activity against mouse B16-F10 cells assessed as inhibition of cell growth measured after 48 hrs by MTT assay

B16-F10 [5] = experiment: Antitumor activity against mouse B16-F10 cells implanted in C57BL/6J mouse assessed as reduction on tumor volume at 60 mg/kg, IG administered for 12 days; format: functional, organism-based; details: time 12.0 day
B16-F10 [6] = experiment: Antitumor activity against mouse B16-F10 cells implanted in C57BL/6J mouse assessed as reduction on tumor weight at 60 mg/kg, IG administered for 12 days; format: functional, organism-based; details: time 12.0 day
B16-F10 [7] = experiment: Antitumor immunity against mouse B16-F10 cells implanted in C57BL/6J mouse assessed as fold reduction in Treg cells in spleen by flow cytometry analysis relative to control; format: functional
B16-F10 [8] = experiment: Antitumor immunity against mouse B16-F10 cells implanted in C57BL/6J mouse assessed as fold reduction in macrophages in tumor microenvironment by flow cytometry analysis relative to control; format: functional
[9] = Toxicity in C57BL/6J mouse implanted with mouse B16-F10 cells assessed as heart damage at 60 mg/kg, IG administered for 12 days H and E staining based histopathological analysis; format: organism-based; details: in vivo, po, 288 h, time 12 day
B16-F10 [10] = experiment: Antitumor immunity against mouse B16-F10 cells implanted in C57BL/6J mouse assessed as fold increase in proportion of macrophages in spleen by flow cytometry analysis relative to control; format: functional
Histone deacetylase 8 = molecular target: T1, Histone deacetylase 8 (Homo sapiens, UniProt Q9BY41); experiment: Inhibition of HDAC8 (unknown origin) using fluorogenic substrate incubated for 30 mins by fluorescence based assay
T1 sequence (Q9BY41 whole entry): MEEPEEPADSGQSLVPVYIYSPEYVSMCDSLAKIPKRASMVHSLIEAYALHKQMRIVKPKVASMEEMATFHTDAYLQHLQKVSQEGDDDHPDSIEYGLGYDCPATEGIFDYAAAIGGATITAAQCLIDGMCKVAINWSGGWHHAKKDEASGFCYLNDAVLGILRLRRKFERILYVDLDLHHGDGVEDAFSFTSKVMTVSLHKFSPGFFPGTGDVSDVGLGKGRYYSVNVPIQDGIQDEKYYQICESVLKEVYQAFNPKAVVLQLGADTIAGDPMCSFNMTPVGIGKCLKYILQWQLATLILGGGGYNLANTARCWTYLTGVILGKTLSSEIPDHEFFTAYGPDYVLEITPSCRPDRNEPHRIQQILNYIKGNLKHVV

B16-F10 [11] = experiment: Antitumor activity against mouse B16-F10 cells implanted in C57BL/6J mouse assessed as reduction on tumor size at 60 mg/kg, IG administered for 12 days; format: functional, organism-based; details: time 12.0 day
B16-F10 [12] = experiment: Antitumor activity against mouse B16-F10 cells xenografted in C57BL/6J mouse assessed as change in tumor cell morphology into normal tissue at 60 mg/kg, IG administered for 12 days by H and E staining based histopathological analysis; format: functional, organism-based; details: time 12.0 day
B16-F10 [13] = experiment: Antitumor activity against mouse B16-F10 cells xenografted in C57BL/6J mouse assessed as reduction in tumor heterogeneity at 60 mg/kg, IG administered for 12 days by H and E staining based histopathological analysis; format: functional, organism-based; details: time 12.0 day
HEL [14] = experiment: cells; format: functional, cell-based; details: Homo sapiens, 48 h
Description: Antiproliferative activity against HEL cells assessed as inhibition of cell growth measured after 48 hrs by MTT assay

K562 = experiment: cells; format: functional, cell-based; details: Homo sapiens, K562, 48 h
Description: Antiproliferative activity against human K562 cells assessed as inhibition of cell growth measured after 48 hrs by MTT assay

B16-F10 [15] = experiment: Antitumor immunity against mouse B16-F10 cells implanted in C57BL/6J mouse assessed as fold increase in downregulation of CD200R expression in spleen by flow cytometry analysis relative to control; format: functional
HEL [16] = experiment: Antitumor activity against HEL cells xenografted in mouse assessed as inhibition of tumor growth at 90 mg/kg, ip administered for 20 days; format: functional, organism-based; details: Homo sapiens, time 20.0 day
Histone deacetylase 2 = Histone deacetylase 2 (Homo sapiens, UniProt Q92769); experiment: Inhibition of HDAC2 (unknown origin) using fluorogenic substrate incubated for 30 mins by fluorescence based assay
B16-F10 [17] = experiment: Antitumor immunity against mouse B16-F10 cells implanted in C57BL/6J mouse assessed as fold increase in CD86 expression by flow cytometry analysis relative to control; format: functional

Chain of Histone deacetylase 1 (Q13547 whole entry): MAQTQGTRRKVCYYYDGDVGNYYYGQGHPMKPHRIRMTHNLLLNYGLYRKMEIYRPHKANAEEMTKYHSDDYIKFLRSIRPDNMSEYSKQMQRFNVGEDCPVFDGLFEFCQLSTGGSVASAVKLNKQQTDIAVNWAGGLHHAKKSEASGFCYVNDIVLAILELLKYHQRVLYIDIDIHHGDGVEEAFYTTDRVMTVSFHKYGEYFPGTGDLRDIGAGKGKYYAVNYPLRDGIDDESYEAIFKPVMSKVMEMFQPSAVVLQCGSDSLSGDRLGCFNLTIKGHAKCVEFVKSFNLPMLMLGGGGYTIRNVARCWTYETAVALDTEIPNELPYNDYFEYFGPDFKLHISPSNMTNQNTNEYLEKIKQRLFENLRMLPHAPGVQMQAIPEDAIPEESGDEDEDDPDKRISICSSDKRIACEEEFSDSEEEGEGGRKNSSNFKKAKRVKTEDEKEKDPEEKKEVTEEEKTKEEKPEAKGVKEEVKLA
Chain of Histone deacetylase 2 (Q92769 whole entry): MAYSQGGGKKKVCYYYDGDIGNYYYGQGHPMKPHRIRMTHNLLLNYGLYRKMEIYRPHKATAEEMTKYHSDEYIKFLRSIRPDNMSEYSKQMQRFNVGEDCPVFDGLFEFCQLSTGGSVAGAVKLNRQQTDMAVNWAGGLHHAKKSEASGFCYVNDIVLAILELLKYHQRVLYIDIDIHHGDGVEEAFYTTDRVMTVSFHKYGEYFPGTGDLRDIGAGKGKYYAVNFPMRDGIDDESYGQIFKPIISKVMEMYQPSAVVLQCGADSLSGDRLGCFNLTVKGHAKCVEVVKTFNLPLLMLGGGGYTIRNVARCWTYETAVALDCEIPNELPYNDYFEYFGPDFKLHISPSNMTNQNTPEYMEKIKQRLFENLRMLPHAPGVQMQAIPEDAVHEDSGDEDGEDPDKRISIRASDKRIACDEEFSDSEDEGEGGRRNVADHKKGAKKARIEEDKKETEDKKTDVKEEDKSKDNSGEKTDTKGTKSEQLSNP

Row | IC50 (Histone deacetylase 1) [nM] | IC50 (PC-3) [nM] | IC50 (HepG2) [nM] | IC50 (B16-F10 [4]) [nM] | IC50 (Histone deacetylase 8) [nM] | IC50 (HEL [14]) [nM] | IC50 (K562) [nM] | Compound | Activity (B16-F10 [1]) | Activity [2] | Activity [3] | Activity (B16-F10 [5]) | Activity (B16-F10 [6]) | fold change (FC) (B16-F10 [7]) | fold change (FC) (B16-F10 [8]) | Activity [9] | fold change (FC) (B16-F10 [10]) | Activity (B16-F10 [11]) | Activity (B16-F10 [12]) | Activity (B16-F10 [13]) | fold change (FC) (B16-F10 [15]) | further results
1 | 24 | 2700 | 3900 | 4800 | 5980 | 20 | 290 | O=C(CCCCCCOc1cccc(-c2nc3ccccc3[nH]2)c1)NO | Active | Non-Toxic | Non-Toxic | Active | Active | 1.5 | 1.7 | Non-Toxic | 1.6 | Active | Active | Active | 1.3 | Activity (HEL [16]): Active; IC50 (Histone deacetylase 2): 46 nM; fold change (FC) (B16-F10 [17]): 1.3
2 | 52 | 7900 | 4800 | 3970 | 12.9 | 360 | 990 | O=C(CCCCCCCOc1cccc(-c2nc3ccccc3[nH]2)c1)NO | Active | Non-Toxic | Non-Toxic | Active | Active | 1.5 | 1.7 | Non-Toxic | 1.6 | Active | Active | Active | 1.3 | Activity (HEL [16]): Active; IC50 (Histone deacetylase 2): 91 nM; fold change (FC) (B16-F10 [17]): 1.3
